Experimental data: article PMC8612954 (Chemosphere, 2021)
Read-outs that look alike come from different tables or passages of the source.

Legend:
[1] = biological target: T1, bovine serum albumin (BSA) (Bos taurus, UniProt P02769); assay: Equilibrium dialysis; format: binding; conditions: for f (fraction of bound PFAS) / KPW (protein/water partition coefficient): 37°C, standard error in parentheses; for f (fraction of bound PFAS): 10 µM BSA in PBS
[2] = biological target: T1, bovine serum albumin (BSA); assay: Fluorescence quenching of BSA by PFAS; format: binding; conditions: for nHill (Hill coefficient, binding cooperativity): Hill model fit, 25°C and 35°C, independent of temperature; for shift in wavelength of maximum fluorescence emission of BSA: maximum shift on PFAS binding (Figure S5)
[3] = biological target: T1, bovine serum albumin (BSA); conditions: ref Allendorf et al. (2019), cited from earlier work; for Ka (association constant): PFAS-BSA binding
serum albumin = conditions: ref Bischel et al. (2011); cited from earlier work

T1 sequence (P02769 25-607): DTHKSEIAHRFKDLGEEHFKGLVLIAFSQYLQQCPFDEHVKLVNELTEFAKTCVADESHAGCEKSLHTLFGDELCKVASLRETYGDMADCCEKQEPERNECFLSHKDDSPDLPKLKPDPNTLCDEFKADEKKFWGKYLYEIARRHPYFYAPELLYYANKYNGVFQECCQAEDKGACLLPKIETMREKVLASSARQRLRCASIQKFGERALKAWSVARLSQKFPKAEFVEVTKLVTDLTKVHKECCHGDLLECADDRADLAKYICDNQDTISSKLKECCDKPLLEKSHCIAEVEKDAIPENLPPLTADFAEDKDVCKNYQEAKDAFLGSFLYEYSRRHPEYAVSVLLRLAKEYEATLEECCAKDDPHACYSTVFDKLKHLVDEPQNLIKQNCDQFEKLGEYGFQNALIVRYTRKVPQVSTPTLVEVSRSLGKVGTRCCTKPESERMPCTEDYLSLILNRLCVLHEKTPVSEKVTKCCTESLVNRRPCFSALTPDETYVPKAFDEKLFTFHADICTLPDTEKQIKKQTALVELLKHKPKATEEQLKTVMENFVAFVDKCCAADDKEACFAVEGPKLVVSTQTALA

| SMILES | f (fraction of bound PFAS) [1] | KPW (protein/water partition coefficient) ([1]; PFAS:BSA molar ratio 2:1) | nHill (Hill coefficient, binding cooperativity) [2] | shift in wavelength of maximum fluorescence emission of BSA [2] | Ka (association constant) [3] | f (fraction of bound PFAS) (serum albumin) | fa (fractional accessibility, modified Stern-Volmer equation) ([2]; 1.25 µM BSA, pH 7.4 PBS, values from Table S3) | f (fraction of bound PFAS) [3] | KPW (protein/water partition coefficient) ([1]; PFAS:BSA molar ratio 0.1:1) | Kd [1] |
| --- | --- | --- | --- | --- | --- | --- | --- | --- | --- | --- |
| O=C(O)C(F)(OC(F)(F)C(F)(F)C(F)(F)F)C(F)(F)F (stereo not shown) [Gen X, 2,3,3,3-tetrafluoro-2-(heptafluoropropoxy)propanoate] | 0.265 (0.006) | 0.07 (0.002) 10^5 | noncooperative | do not show marked shifts | 0.23 (0.05) 10^5 M^−1 | – | – | – | – | – |
| O=S(=O)(O)C(F)(F)C(F)(F)C(F)(F)C(F)(F)F [PFBS, perfluorobutanesulfonic acid] | 0.249 (0.064) | 0.07 (0.02) 10^5 | < 1 | do not show marked shifts | 1.1 (0.28) 10^5 M^−1 | ≥ 0.99 | ~ 0.3 | 0.44 | – | – |
| O=C(O)C(F)(F)C(F)(F)C(F)(F)C(F)(F)C(F)(F)C(F)(F)C(F)(F)C(F)(F)C(F)(F)F [PFDA, perfluorodecanoic acid] | 0.983 (0.004) | – | < 1 | −10 nm | 36 (3.1) 10^5 M^−1 | – | – | – | 12.66 (3.23) 10^5 | – |
| O=S(=O)(O)C(F)(F)C(F)(F)C(F)(F)C(F)(F)C(F)(F)C(F)(F)F [PFHxS, perfluorohexanesulfonic acid] | 0.842 (0.008) | – | positive binding cooperativity | −10 nm | 44 (3.5) 10^5 M^−1 | ≥ 0.99 | – | 0.62 | 1.11 (0.06) 10^5 | 1540 nM |
| O=C(O)C(F)(F)C(F)(F)C(F)(F)C(F)(F)C(F)(F)C(F)(F)C(F)(F)C(F)(F)F [PFNA, perfluorononanoic acid] | 0.975 (0.005) | – | noncooperative | −13 nm | 14 (2.2) 10^5 M^−1 | – | – | – | 8.52 (1.62) 10^5 | – |
| O=C(O)C(F)(F)C(F)(F)C(F)(F)C(F)(F)C(F)(F)C(F)(F)C(F)(F)F [PFOA, perfluorooctanoic acid] | 0.755 (0.038) | – | positive binding cooperativity | – | 11 (1.1) 10^5 M^−1 | ≥ 0.99 | – | 0.44 | 0.66 (0.13) 10^5 | 2650 nM |
| O=S(=O)(O)C(F)(F)C(F)(F)C(F)(F)C(F)(F)C(F)(F)C(F)(F)C(F)(F)C(F)(F)F [PFOS, perfluorooctanesulfonic acid] | 0.942 (0.004) | – | positive binding cooperativity | −7 nm | 32 (4.9) 10^5 M^−1 | – | – | – | 3.39 (0.27) 10^5 | – |
